Holding throughout (assay type): cell-based
Test [1] has as its target T1, human TLR7 (Homo sapiens, UniProt Q9NYK1).
T1 construct: host or cells: HEK-Blue cells
T1 sequence (Q9NYK1 27-1049): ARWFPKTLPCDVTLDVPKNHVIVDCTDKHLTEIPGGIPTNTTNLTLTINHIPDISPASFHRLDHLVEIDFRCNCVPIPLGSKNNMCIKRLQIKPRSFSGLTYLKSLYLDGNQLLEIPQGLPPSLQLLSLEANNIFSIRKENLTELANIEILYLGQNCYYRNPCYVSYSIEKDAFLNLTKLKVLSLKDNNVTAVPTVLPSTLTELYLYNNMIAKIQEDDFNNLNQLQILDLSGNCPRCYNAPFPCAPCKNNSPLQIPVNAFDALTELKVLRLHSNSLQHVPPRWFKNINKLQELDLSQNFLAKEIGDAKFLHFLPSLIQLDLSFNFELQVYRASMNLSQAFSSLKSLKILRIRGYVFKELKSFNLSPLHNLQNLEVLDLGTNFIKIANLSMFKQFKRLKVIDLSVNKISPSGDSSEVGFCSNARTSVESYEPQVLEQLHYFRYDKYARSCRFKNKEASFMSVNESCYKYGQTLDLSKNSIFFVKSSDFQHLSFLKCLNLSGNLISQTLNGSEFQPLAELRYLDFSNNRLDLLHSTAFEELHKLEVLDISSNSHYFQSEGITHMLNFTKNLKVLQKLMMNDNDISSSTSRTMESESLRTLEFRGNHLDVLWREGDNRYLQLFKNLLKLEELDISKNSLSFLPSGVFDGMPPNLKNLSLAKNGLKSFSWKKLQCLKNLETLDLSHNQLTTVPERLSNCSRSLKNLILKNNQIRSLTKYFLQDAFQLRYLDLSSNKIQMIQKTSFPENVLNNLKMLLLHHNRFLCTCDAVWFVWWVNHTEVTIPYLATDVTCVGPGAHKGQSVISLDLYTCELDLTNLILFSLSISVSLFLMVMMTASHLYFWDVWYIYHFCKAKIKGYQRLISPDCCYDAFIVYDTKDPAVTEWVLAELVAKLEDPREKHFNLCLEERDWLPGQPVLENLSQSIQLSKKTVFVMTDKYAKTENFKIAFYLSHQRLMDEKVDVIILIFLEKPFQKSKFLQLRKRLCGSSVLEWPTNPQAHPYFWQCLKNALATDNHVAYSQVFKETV
Kind of test: TLR7 inhibition reporter assay (HEK-Blue cells, SEAP reporter, gardiquimod stimulation). Particulars: HEK-Blue cells overexpressing human TLR7, SEAP reporter, gardiquimod 7.5 μM; read-out: TLR7 IC50. The method in brief:
(§1)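 Human TLR7/8/9 HEK-Blue reporter lines; dose range 0.05 nM–50 μM; 30 min RT preincubation; stimulus gardiquimod 7.5 μM / R848 15.9 μM / ODN2006 5 nM respectively; 22 h, 37 °C; SEAP detected colorimetrically.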
(In general: Reporter assays use an easily measured gene product as a stand-in for the process of interest.)

Test [2] addresses T2, human TLR8 (Homo sapiens, UniProt Q9NR97).
T2 construct: host or cells: HEK-Blue cells
T2 sequence (Q9NR97 27-1041): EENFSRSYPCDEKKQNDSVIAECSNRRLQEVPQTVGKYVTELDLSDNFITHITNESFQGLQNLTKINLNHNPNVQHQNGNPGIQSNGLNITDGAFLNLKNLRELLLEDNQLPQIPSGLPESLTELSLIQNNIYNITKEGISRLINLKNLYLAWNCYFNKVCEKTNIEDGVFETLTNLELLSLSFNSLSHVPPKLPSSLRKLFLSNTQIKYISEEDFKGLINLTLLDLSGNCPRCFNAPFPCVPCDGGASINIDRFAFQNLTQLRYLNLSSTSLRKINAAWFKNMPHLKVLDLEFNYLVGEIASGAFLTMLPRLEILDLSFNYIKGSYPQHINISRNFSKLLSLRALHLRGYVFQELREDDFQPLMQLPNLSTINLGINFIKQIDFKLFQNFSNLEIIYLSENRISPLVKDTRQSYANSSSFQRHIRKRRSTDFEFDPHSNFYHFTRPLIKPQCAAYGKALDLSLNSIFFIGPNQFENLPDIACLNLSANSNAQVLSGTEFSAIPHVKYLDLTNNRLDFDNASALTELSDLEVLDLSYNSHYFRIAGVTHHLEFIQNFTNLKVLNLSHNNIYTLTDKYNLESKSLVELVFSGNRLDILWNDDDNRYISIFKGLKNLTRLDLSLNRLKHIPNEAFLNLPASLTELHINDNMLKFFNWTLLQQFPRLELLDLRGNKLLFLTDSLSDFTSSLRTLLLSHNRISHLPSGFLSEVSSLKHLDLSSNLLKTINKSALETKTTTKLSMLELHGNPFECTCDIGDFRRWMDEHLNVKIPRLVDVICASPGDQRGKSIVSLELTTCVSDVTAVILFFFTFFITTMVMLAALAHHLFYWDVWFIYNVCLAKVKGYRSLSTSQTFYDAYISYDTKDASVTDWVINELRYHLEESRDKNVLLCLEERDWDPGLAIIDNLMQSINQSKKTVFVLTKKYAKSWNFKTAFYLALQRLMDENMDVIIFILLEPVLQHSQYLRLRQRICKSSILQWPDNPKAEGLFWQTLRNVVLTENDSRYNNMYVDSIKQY
Nature of the test: TLR8 inhibition reporter assay (HEK-Blue cells, SEAP reporter, R848 stimulation). Particulars: HEK-Blue cells overexpressing human TLR8, SEAP reporter, R848 15.9 μM; read-out: TLR8 IC50. The procedure, abridged:
as §1

In test [3] the target is T3, human TLR9 (Homo sapiens, UniProt Q9NR96).
T3 construct: host or cells: HEK-Blue cells
T3 sequence (Q9NR96 26-1032): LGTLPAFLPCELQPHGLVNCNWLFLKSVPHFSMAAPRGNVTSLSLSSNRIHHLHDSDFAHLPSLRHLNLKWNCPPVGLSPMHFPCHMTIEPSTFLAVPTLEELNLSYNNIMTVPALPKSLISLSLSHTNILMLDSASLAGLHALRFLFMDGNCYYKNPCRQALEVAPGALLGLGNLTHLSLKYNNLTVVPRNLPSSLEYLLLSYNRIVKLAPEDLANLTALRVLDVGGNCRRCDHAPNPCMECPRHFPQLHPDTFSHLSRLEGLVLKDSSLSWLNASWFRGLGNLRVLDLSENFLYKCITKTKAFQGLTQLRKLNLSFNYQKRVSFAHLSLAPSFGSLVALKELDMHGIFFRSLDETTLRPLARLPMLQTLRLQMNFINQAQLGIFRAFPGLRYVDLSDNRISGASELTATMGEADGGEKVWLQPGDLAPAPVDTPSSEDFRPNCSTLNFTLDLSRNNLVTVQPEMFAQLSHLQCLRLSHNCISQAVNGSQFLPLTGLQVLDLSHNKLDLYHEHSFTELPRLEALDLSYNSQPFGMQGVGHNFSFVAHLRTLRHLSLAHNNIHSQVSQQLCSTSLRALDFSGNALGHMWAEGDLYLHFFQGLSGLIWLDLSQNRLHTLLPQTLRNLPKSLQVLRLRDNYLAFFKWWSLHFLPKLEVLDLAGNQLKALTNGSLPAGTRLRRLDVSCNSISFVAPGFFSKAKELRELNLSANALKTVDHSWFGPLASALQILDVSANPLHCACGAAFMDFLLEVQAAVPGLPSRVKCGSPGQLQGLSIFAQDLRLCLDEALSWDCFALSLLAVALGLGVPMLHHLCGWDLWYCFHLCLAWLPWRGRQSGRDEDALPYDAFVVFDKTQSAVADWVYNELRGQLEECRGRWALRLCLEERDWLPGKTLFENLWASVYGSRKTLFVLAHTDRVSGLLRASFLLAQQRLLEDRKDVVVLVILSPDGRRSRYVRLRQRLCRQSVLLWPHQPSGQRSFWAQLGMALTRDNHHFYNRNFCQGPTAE
Kind of test: TLR9 inhibition reporter assay (HEK-Blue cells, SEAP reporter, ODN2006 stimulation). Particulars: HEK-Blue cells overexpressing human TLR9, SEAP reporter, ODN2006 5 nM. The procedure, abridged: as §1

The term IC50 denotes the concentration that inhibits the measured activity by half. Take `COc1cc(-c2[nH]c3sc(C4CCC(N(C)C5COC5)CC4)nc3c2C(C)C)cn2ncnc12` (single isomer, unassigned) [Example 125, N-(4-(6-isopropyl-5-(8-methoxy-[1,2,4]triazolo[1,5-a]pyridin-6-yl)-4H-pyrrolo[3,2-d]thiazol-2-yl)cyclohexyl)-N-methyloxetan-3-amine]: the half-inhibitory concentration (IC50) in test [1] is 5.8 nM; in test [2], 25.9 nM; in test [3], 5400 nM.
In the same order, the values of `Cc1cc(-c2[nH]c3sc(C4CCC(NC5COC5)CC4)nc3c2C(C)C)cn2ncnc12` (single isomer, unassigned) [Example 130, N-(4-(6-isopropyl-5-(8-methyl-[1,2,4]triazolo[1,5-a]pyridin-6-yl)-4H-pyrrolo[3,2-d]thiazol-2-yl)cyclohexyl)oxetan-3-amine] are 0.45 nM, 2.42 nM and 11500 nM.
In the same order, the values of `Cc1cc(-c2[nH]c3sc(C4CCC(NC5COC5)CC4)nc3c2C(C)C)cn2ncnc12` (single isomer, unassigned) [Example 131, N-(4-(6-isopropyl-5-(8-methyl-[1,2,4]triazolo[1,5-a]pyridin-6-yl)-4H-pyrrolo[3,2-d]thiazol-2-yl)cyclohexyl)oxetan-3-amine] are 7.48 nM, 32.6 nM and 10900 nM.
In the same order, the values of `CCN(C)C1CCC(c2nc3c(C(C)C)c(-c4cc(C)c5ncnn5c4)[nH]c3s2)CC1` (single isomer, unassigned) [Example 132, N-ethyl-4-(6-isopropyl-5-(8-methyl-[1,2,4]triazolo[1,5-a]pyridin-6-yl)-4H-pyrrolo[3,2-d]thiazol-2-yl)-N-methylcyclohexan-1-amine] are 0.36 nM, 2.73 nM and 2140 nM.
With `Cc1cc(-c2[nH]c3sc(C4CCC(NCC5(C)COC5)CC4)nc3c2C(C)C)cn2ncnc12` (single isomer, unassigned) [Example 134, 4-(6-isopropyl-5-(8-methyl-[1,2,4]triazolo[1,5-a]pyridin-6-yl)-4H-pyrrolo[3,2-d]thiazol-2-yl)-N-((3-methyloxetan-3-yl)methyl)cyclohexan-1-amine], the IC50 in test [1] turned out to be 1.23 nM; in test [2], 1.28 nM; in test [3], 16100 nM.
Take `Cc1cc(-c2[nH]c3sc(C4CCC(NCC5(C)COC5)CC4)nc3c2C(C)C)cn2ncnc12` (single isomer, unassigned) [Example 135, 4-(6-isopropyl-5-(8-methyl-[1,2,4]triazolo[1,5-a]pyridin-6-yl)-4H-pyrrolo[3,2-d]thiazol-2-yl)-N-((3-methyloxetan-3-yl)methyl)cyclohexan-1-amine]: the values for the IC50 in test [1], in test [2] and in test [3] were 6.8 nM, 38.9 nM and 22400 nM, respectively.
In the same order, the values of `Cc1cc(-c2[nH]c3sc(C4CCC(N5CC6(COC6)C5)CC4)nc3c2C(C)C)cn2ncnc12` (single isomer, unassigned) [Example 136, 6-(4-(6-isopropyl-5-(8-methyl-[1,2,4]triazolo[1,5-a]pyridin-6-yl)-4H-pyrrolo[3,2-d]thiazol-2-yl)cyclohexyl)-2-oxa-6-azaspiro[3.3]heptane] are 1.69 nM, 4.36 nM and 42800 nM.
Consider `Cc1cc(-c2[nH]c3sc(C4CCC(N5CC6(COC6)C5)CC4)nc3c2C(C)C)cn2ncnc12` (single isomer, unassigned) [Example 137, 6-(4-(6-isopropyl-5-(8-methyl-[1,2,4]triazolo[1,5-a]pyridin-6-yl)-4H-pyrrolo[3,2-d]thiazol-2-yl)cyclohexyl)-2-oxa-6-azaspiro[3.3]heptane], for which the IC50 stood at 3.4 nM in test [1], 40.8 nM in test [2] and 6730 nM in test [3].
In the same order, the values of `Cc1cc(-c2[nH]c3sc(C4CCC(NC56CC(C5)C6)CC4)nc3c2C(C)C)cn2ncnc12` (single isomer, unassigned) [Example 138, N-(4-(6-isopropyl-5-(8-methyl-[1,2,4]triazolo[1,5-a]pyridin-6-yl)-4H-pyrrolo[3,2-d]thiazol-2-yl)cyclohexyl)bicyclo[1.1.1]pentan-1-amine] are 0.93 nM, 3.96 nM and 14800 nM.
In the same order, the values of `Cc1cc(-c2[nH]c3sc(C4CCC(NC56CC(C5)C6)CC4)nc3c2C(C)C)cn2ncnc12` (single isomer, unassigned) [Example 139, N-(4-(6-isopropyl-5-(8-methyl-[1,2,4]triazolo[1,5-a]pyridin-6-yl)-4H-pyrrolo[3,2-d]thiazol-2-yl)cyclohexyl)bicyclo[1.1.1]pentan-1-amine] are 4.96 nM, 26.3 nM and 17500 nM.

Source of the values: patent US20230139171A1 (SITA Information Networking Computing UK Limited, priority 2019, published 2023).
